Source: patent US20240132464A1, “HETEROCYCLIC COMPOUNDS AS E3 LIGASE INHIBITORS” (Accutar Biotechnology Inc., priority 2022, published 2024)

Target: T1, GID4 (Uniprot ID: Q81VV7, residues 124-289) (Homo sapiens, UniProt Q8IVV7)
T1 construct: GID4 (Uniprot ID: Q81VV7, residues 124-289)
T1 sequence (Q8IVV7 124-289): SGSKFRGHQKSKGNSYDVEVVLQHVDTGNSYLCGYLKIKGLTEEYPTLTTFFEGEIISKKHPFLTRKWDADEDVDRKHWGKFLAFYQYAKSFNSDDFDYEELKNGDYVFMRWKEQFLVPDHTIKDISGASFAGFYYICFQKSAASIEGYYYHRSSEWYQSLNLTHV
Assay: GID4 competitive binding assay (AlphaScreen, GID4/degron peptide PGLW)
Conditions: 24 nM GID4, 48 nM biotinylated degron peptide PGLW, 4° C., read-out: IC50 (Inhibition of GID4/Degron binding by test compounds)
Outline: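 Displacement of biotin-tagged degron tetrapeptide PGLW (48 nM) from C-terminally 6His-tagged GID4 124-289 (24 nM) read by AlphaScreen proximity signal. Compound incubation 2 h, then beads 1 h, all at 4 °C, pH 7.5, 2% DMSO final; background-corrected inhibition fitted with variable slope for IC50.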

SMILES | IC50 [nM]
Nc1nc(NC2CC2)nc(N2CCOC(c3ccccc3Br)C2)n1 (centres unmarked) [Compound 61, 6-(2-(2-bromophenyl)morpholino)-N2-cyclopropyl-1,3,5-triazine-2,4-diamine] | 500 to 5000
CC(C)c1cc(N2CCNC(c3nnc[nH]3)C2)nc(N)n1 (centres unmarked) [Compound 204, 4-(3-(4H-1,2,4-triazol-3-yl)piperazin-1-yl)-6-isopropylpyrimidin-2-amine] | > 5000
CC(C)c1cc(N2CCCCC(O)(c3ccccc3Br)C2)nc(N)n1 (centres unmarked) [Compound 226, 1-(2-amino-6-isopropylpyrimidin-4-yl)-3-(2-bromophenyl)azepan-3-ol] | > 5000
Nc1nc(N2CCN[C@@H](c3ccccc3Br)C2)c2[nH]ccc2n1 (racemic) [Compound 43, (S/R)-4-(3-(2-bromophenyl)piperazin-1-yl)-5H-pyrrolo[3,2-d]pyrimidin-2-amine] | 500 to 5000
Brc1ccccc1C1CN(c2ccnc3[nH]cnc23)CCN1 (single isomer, unassigned) [Compound 35, (R/S)-7-(3-(2-bromophenyl)piperazin-1-yl)-3H-imidazo[4,5-b]pyridine] | 500 to 5000
Cc1c(-c2ccc(Br)c(C3CN(c4cc(C(C)C)nc(N)n4)CCN3)c2)cnn1C (single isomer, unassigned) [Compound 6, R or S-4-(3-(2-bromo-5-(1,5-dimethyl-1H-pyrazol-4-yl)phenyl)piperazin-1-yl)-6-isopropylpyrimidin-2-amine] | < 500
CC(C)c1nc(N)cc(N2CCN[C@@H](c3ccccc3Br)C2)n1 (racemic) [Compound 75, (S/R)-6-(3-(2-bromophenyl)piperazin-1-yl)-2-isopropylpyrimidin-4-amine] | 500 to 5000
Cn1nccc1C1CCCN(c2nc(N)nc3c2CCC3)C1 (centres unmarked) [Compound 215, 4-(3-(1 methyl-1H-pyrazol-5-yl)piperidin-1-yl)-6,7-dihydro-5H-cyclopenta[d]pyrimidin-2-amine] | > 5000
CN1CCC(CNC(=O)c2ccc(-c3cc(O)c4ncccc4c3)cc2)C1 (centres unmarked) [Compound 292, 4-(8-hydroxyquinolin-6-yl)-N-((1-methylpyrrolidin-3-yl)methyl)benzamide] | < 500
CC(C)c1nc(N)cc(N2CCOC(c3ccccc3Br)C2)n1 (single isomer, unassigned) [Compound 73, (R/S)-6-(2-(2-bromophenyl)morpholino)-2-isopropylpyrimidin-4-amine] | 500 to 5000
CNc1nc(N)cc(N2CCCC(c3cnc4ccccn34)C2)n1 (racemic) [Compound 117, (S/R)-6-(3-(imidazo[1,2-a]pyridin-3-yl)piperidin-1-yl)-N2-methylpyrimidine-2,4-diamine] | 500 to 5000
CN1CCN(C(=O)c2cccc(-c3ccc4ccnc(N)c4c3)c2)CC1 [Compound 351, (3-(1-aminoisoquinolin-7-yl)phenyl)(4-methylpiperazin-1-yl)methanone] | > 5000
CN(C)CCNC(=O)c1n[nH]c2ccc(-c3ccc4ncnc(N)c4c3)cc12 [Compound 329, 5-(4-aminoquinazolin-6-yl)-N-(2-(dimethylamino)ethyl)-1H-indazole-3-carboxamide] | 500 to 5000
CN1CC(CNC(=O)c2n[nH]c3ccc(-c4ccc5ccnc(N)c5c4)cc23)C1 [Compound 334, 5-(1-aminoisoquinolin-7-yl)-N-((1-methylazetidin-3-yl)methyl)-1H-indazole-3-carboxamide] | < 500
CN(C)CCCNC(=O)c1cnc(-c2cc(O)c3ncccc3c2)nc1 [Compound 282, N-(3-(dimethylamino)propyl)-2-(8-hydroxyquinolin-6-yl)pyrimidine-5-carboxamide] | < 500
Nc1nccc2ccc(-c3ccc4[nH]nc(C(=O)NCCO)c4c3)cc12 [Compound 331, 5-(1-aminoisoquinolin-7-yl)-N-(2-hydroxyethyl)-1H-indazole-3-carboxamide] | < 500
CN1CC(CNC(=O)c2cccc(-c3ccc4ccnc(N)c4c3)c2)C1 [Compound 347, 3-(1-aminoisoquinolin-7-yl)-N-((1-methylazetidin-3-yl)methyl)benzamide] | > 5000
